Measurements from publication PMC4554983 (Bioorganic & medicinal chemistry, 2015).
Values after ≈ are worked out from the molar mass of the structure shown.

Legend:
[1] = tested on: Candida albicans (WTBF-50); assay: Antifungal activity assay; assay type: cell-based
[2] = tested on: Cryptococcus neoformans Cn18 (WTBF-106); assay: Antifungal activity assay; assay type: cell-based; details: MIC ratio versus P2
C. albicans = assay: Time kill assays; assay type: cell-based, Candida albicans

With `C[C@@H]1[C@H](O)[C@@H](C)/C=C/C=C/C=C/C=C/C=C/C=C/C=C/[C@H](O[C@@H]2O[C@H](C)[C@@H](O)[C@H](N)[C@@H]2O)C[C@@H]2O[C@](O)(C[C@@H](O)C[C@@H](O)[C@H](O)CC[C@@H](O)C[C@@H](O)CC(=O)O[C@H]1C)C[C@H](O)[C@H]2C(=O)O` [AMB, Amphotericin B, reference compound] the MIC ([1]; Candida albicans) was 0.125 µg/mL (≈ 0.135 µM).
For `CC1CNC(c2ccc3cc(-c4ccc(-c5cc6ccc(C7=NC(C)CN7)cc6[nH]5)cc4)[nH]c3c2)=N1.O=C(O)C(F)(F)F` (centres unmarked) [Compound P9], the “fold more potent than P2 against Cryptococcus neoformans” value [2] was 6 fold.
In the case of `O=C(O)C(F)(F)F.c1cc2cc(-c3ccc(-c4cc5ccc(C6=NCCCN6)cc5[nH]4)cc3)[nH]c2cc1C1=NCCCN1` [Compound P10], the “time to reduce viable cells below the limit of detection” value (C. albicans; 2× the MIC) is reported as at most 8 h.
With `CC(=O)O.c1cc2cc(-c3ccc(-c4ccn5cc(C6=NCCCN6)nc5c4)cc3)[nH]c2cc1C1=NCCCN1` [Compound P33] the “fold more potent than P35 against Candida spp.” value ([1]; MIC ratio versus P35) was over 10 fold.
In the case of `CC(=O)O.c1cc2cc(-c3ccc(-c4ccc5cc(C6=NCCCN6)oc5c4)cc3)[nH]c2cc1C1=NCCCN1` [Compound P34], the “fungicidal activity relative to positive control” value (C. albicans; 2× the MIC and 4× the MIC, versus AMB at 4× the MIC) is reported as “comparable to that of AMB”.
